Source: paper PMC12830207, “Targeting the protein–protein interaction between the CDC37 cochaperone and client kinases by an allosteric RAF dimer breaker” (The Journal of Biological Chemistry, 2025)
Entries after “also recorded” stand apart in the source; their conditions may differ.

Legend:
BRAF kinase domain = assay: Hydrogen–deuterium exchange MS; type: binding, human; conditions: BRAF^KD 10 μM, braftide 30 μM, pH 7.4, 20 s to 4.5 h, duplicate HDX–MS
Experimental: The 6XHIS-BRAF KD (residues 442–723, supplementary information 1) was purified as previously reported ([39]) with the human sequence expressed in Escherichia coli. The KD contains 16 solubilizing mutations (I543A, I544S, I551K, Q562R, L588N, K630S, F667E, Y673S, A688R, L706S, Q709R, S713E, L716E, S720E, P722S, and K723G), which were determined to preserve kinase activity and increase protein expression in E. coli. Mutations of the 16 residues are not involved in MEK1 interactions ([40], [41]). […] Protein induction was induced by 1 mM IPTG, 16 °C in a shaking incubator, 200 RPM. The pellet was lysed in a buffer containing 50 mM Hepes (pH 7.4), 250 mM NaCl, 50 mM KCl, 10 mM imidazole, 10 mM β-mercaptoethanol, 10% glycerol, and 1X protease inhibitor (Roche) under sonication. […] Protein fractions were analyzed on SDS-PAGE, pooled, and flash frozen for analytical use.
The exchange times varied from 20 s to 4.5 h. […] Peptides were identified through MS/MS analysis of nondeuterated samples, with data analyzed using SEQUEST (Thermo Proteome Discoverer) against a database containing sequences of BRAF^KD, braftide, pepsin, potential contaminants, and decoy proteins. Deuterated samples were analyzed using ExMS2 software (developed by Englander Lab at University of Pennsylvania).

CDC37–AKT1 interaction = assay: Co-IP of CDC37-FLAG with AKT1; type: cell-based, human (HEK293); conditions: HEK293, 25 µM braftide, bortezomib pretreated, n=4
Experimental: (§1) HEK293 cells were seeded at 1(10)^6 cells per well for a 6-well plate or 5(10)^6 for 10 cm dishes and incubated until 40% to 60% confluency. Transfection was carried out using a 1:3 DNA:PEI-MAX ratio in OPTI-MEM and allowed 48 h for protein expression. For peptide assays, 48 h post-transfection, cells were treated with TAT–braftide carried in OPTI-MEM at indicated concentrations. Cells were harvested in cold PBS. Harvested cells were lysed in 4% SDS or modified radioimmunoprecipitation assay (RIPA) for co-IP experiments. Quantification of total protein by the bicinchoninic acid assay was carried out according to the manufacturer's protocols (Pierce; catalog no.: 23225).
(§2) Transfected HEK293 cells were treated with the indicated treatments and harvested in cold PBS. […] Samples were analyzed via immunoblot.
(§3) Western blot band densities were quantified with ImageJ software (National Institutes of Health) and normalized to the indicated loading control. Statistical significance was determined through one-/two-way ANOVA, where indicated, followed by Tukey's honest significant difference post hoc test with corresponding p values (∗p < 0.05, ∗∗p < 0.002, ∗∗∗p < 0.0002, and ∗∗∗∗p < 0.0001). […]

RAF kinase = conditions: in vitro and in cells; cited from earlier work
Description: The sequence of braftide mirrors the residues spanning the tail end of the αC helix and a region known as the αC helix–β4 loop, which includes three key residues: BRAF R509, L515, and M517, critical for RAF dimerization.

[1] = test system: MAPK proteins (BRAF, CRAF, MEK, pMEK, ERK, pERK); conditions: HCT116, braftide alone; cited from earlier work
Experimental: HCT116 cells were treated with 17-AAG alone or in combination with braftide (Fig. 5, C and D). HSP90 monotherapy (17-AAG) depleted CRAF kinase level at a concentration of 2 μM (Fig. 5C), whereas braftide monotherapy ([23]) depleted RAF kinase levels at a concentration of 10 μM. To investigate potential synergy, we assessed combinatorial treatments in HCT116 cells, using a fixed concentration of 500 nM of the primary drug (braftide) with increasing concentrations (0 to 1 μM) of the secondary drug (17-AAG) (Fig. 5D).

CDC37–BRAF interaction = assay: Co-IP of CDC37-FLAG with BRAF-V5 in HEK293; type: cell-based, human (HEK293); conditions: HEK293, 25 μM braftide, bortezomib pretreatment
Experimental: as §1, §2, §3

GRKKRRQRRRPQ-miniPEG-TRHVNILLFM [Braftide]
braftide binding region on BRAF KD / change in deuterium uptake (BRAF kinase domain): slows deuterium incorporation compared to apo BRAF^KD; also recorded: essentially no change except in the dimer interface region | braftide binding region on BRAF KD / change in deuterium uptake (BRAF kinase domain; listed as braftide): spanning amino acids 496 to 515 | association of CDC37 with AKT1 (CDC37–AKT1 interaction): disrupts client AKT1 from CDC37-FLAG in HEK293 cells | association of CDC37 with AKT1 (CDC37–AKT1 interaction; listed as braftide): reduced association of CDC37 with AKT1 | RAF kinase activity (RAF kinase): inhibits RAF kinase activity | paradoxical activation induced by ATP-competitive inhibitors (RAF kinase): mitigates paradoxical activation induced by ATP-competitive inhibitors, both in vitro and in cells | concentration at which RAF kinase levels are depleted, braftide monotherapy [1]: 10 µM | CDC37–BRAF complex (CDC37–BRAF interaction): reduced the CDC37–client BRAF–CRAF complex
